Assay results taken from ChEMBL document CHEMBL1128008, “Synthesis of etoposide phosphate, BMY-40481: A water-soluble clinically active prodrug of etoposide” (Bioorg Med Chem Lett, 1994).
Active and inactive are the calls of the source. No cut-off for these calls is given here.

Tests used:
[1] = Plasma half life in monkey; format: ADME; conditions: cercopithecidae
[2] = Plasma half life in mouse; format: ADME, organism-based
Homo sapiens = assay: Antitumor activity administered ip was determined in human model; Active; format: functional, organism-based
[3] = Plasma half life in human; format: ADME, cell-free
P388 [4] = assay: Inhibitory activity administered was determined against ic P388 leukemia cells; Active; format: functional; conditions: Mus musculus
P388 [5] = assay: Inhibitory activity administered iv was determined against implanted P388 leukemia cells; Active; format: functional, organism-based; conditions: Mus musculus
L1210 = assay: Inhibitory activity administered was determined against ic L1210 leukemia cells; Active; format: functional; conditions: Mus musculus
[6] = Plasma half life in dog; format: ADME, organism-based, Canis lupus familiaris
B16 = assay: Inhibitory activity administered was determined against sc B16 melanoma cells; Active; format: functional, organism-based; conditions: Mus musculus
Mus musculus = assay: Antitumor activity administered ip, po was determined in murine model; Active; format: functional, organism-based

| SMILES | half-life [1] [min] | half-life [2] [min] | Activity (Homo sapiens) | half-life [3] [min] | Activity (P388 [4]) | Activity (P388 [5]) | Activity (L1210) | half-life [6] [min] | Activity (B16) | Activity (Mus musculus) |
| --- | --- | --- | --- | --- | --- | --- | --- | --- | --- | --- |
| COc1cc([C@H]2c3cc4c(cc3[C@@H](O[C@@H]3O[C@H]5CO[C@@H](C)O[C@H]5[C@H](O)[C@@H]3O)[C@H]3COC(=O)[C@H]23)OCO4)cc(OC)c1OP(=O)([O-])[O-].[Na+].[Na+] | 39 | 39 | Active | 45 | Active | Active | Active | 124 | Active | – |
| COc1cc(C2c3cc4c(cc3[C@@H](O[C@@H]3O[C@@H]5CO[C@@H](C)O[C@H]5[C@H](O)[C@H]3O)[C@H]3COC(=O)[C@H]23)OCO4)cc(OC)c1O (single isomer, unassigned) | – | – | Active | – | – | – | – | – | – | Active |
